Test results published in ChEMBL document CHEMBL2150993, “Substituted thiazoles VII. Synthesis and antitumor activity of certain 2-(substituted amino)-4-phenyl-1,3-thiazole analogs” (2012).

Key:
Format in all cases: functional
Conditions in all cases: at 10 µM
CCRF-CEM = assay: Growth inhibition of human CCRF-CEM cells after 48 hrs by cell counting analysis
HL-60 = assay: Growth inhibition of human HL60 cells after 48 hrs by cell counting analysis
K562 = assay: Growth inhibition of human K562 cells after 48 hrs by cell counting analysis
RPMI-8226 = assay: Growth inhibition of human RPMI8226 cells after 48 hrs by cell counting analysis
SR = assay: Growth inhibition of human SR cells after 48 hrs by cell counting analysis
A549 = assay: Growth inhibition of human A549 cells after 48 hrs by cell counting analysis
EKVX = assay: Growth inhibition of human EKVX cells after 48 hrs by cell counting analysis
HOP-62 = assay: Growth inhibition of human HOP62 cells after 48 hrs by cell counting analysis
HOP-92 = assay: Growth inhibition of human HOP92 cells after 48 hrs by cell counting analysis
NCI-H226 = assay: Growth inhibition of human NCI-H226 cells after 48 hrs by cell counting analysis
NCI-H23 = assay: Growth inhibition of human NCI-H23 cells after 48 hrs by cell counting analysis
[1] = Growth inhibition of human NCI-322M cells after 48 hrs by cell counting analysis
NCI-H522 = assay: Growth inhibition of human NCI-H522 cells after 48 hrs by cell counting analysis
HCC 2998 = assay: Growth inhibition of human HCC2998 cells after 48 hrs by cell counting analysis
HCT-15 = assay: Growth inhibition of human HCT15 cells after 48 hrs by cell counting analysis
HT-29 = assay: Growth inhibition of human HT-29 cells after 48 hrs by cell counting analysis
KM12 = assay: Growth inhibition of human KM12 cells after 48 hrs by cell counting analysis
SW-620 = assay: Growth inhibition of human SW620 cells after 48 hrs by cell counting analysis
SF-268 = assay: Growth inhibition of human SF268 cells after 48 hrs by cell counting analysis
SF-295 = assay: Growth inhibition of human SF295 cells after 48 hrs by cell counting analysis
SF-539 = assay: Growth inhibition of human SF539 cells after 48 hrs by cell counting analysis
SNB-19 = assay: Growth inhibition of human SNB19 cells after 48 hrs by cell counting analysis
SNB-75 = assay: Growth inhibition of human SNB75 cells after 48 hrs by cell counting analysis
U-251 = assay: Growth inhibition of human U251 cells after 48 hrs by cell counting analysis
LOX IMVI = assay: Growth inhibition of human LOXIMVI cells after 48 hrs by cell counting analysis
Malme-3M = assay: Growth inhibition of human MALME-3M cells after 48 hrs by cell counting analysis
M14 = assay: Growth inhibition of human M14 cells after 48 hrs by cell counting analysis
MDA-MB-435 = assay: Growth inhibition of human MDA-MB-435 cells after 48 hrs by cell counting analysis
SK-MEL-2 = assay: Growth inhibition of human SK-MEL-2 cells after 48 hrs by cell counting analysis
SK-MEL-28 = assay: Growth inhibition of human SK-MEL-28 cells after 48 hrs by cell counting analysis
SK-MEL-5 = assay: Growth inhibition of human SK-MEL-5 cells after 48 hrs by cell counting analysis
UACC-257 = assay: Growth inhibition of human UACC257 cells after 48 hrs by cell counting analysis
UACC-62 = assay: Growth inhibition of human UACC62 cells after 48 hrs by cell counting analysis
IGROV-1 = assay: Growth inhibition of human IGROV1 cells after 48 hrs by cell counting analysis
OVCAR-3 = assay: Growth inhibition of human OVCAR3 cells after 48 hrs by cell counting analysis
OVCAR-4 = assay: Growth inhibition of human OVCAR4 cells after 48 hrs by cell counting analysis
OVCAR-5 = assay: Growth inhibition of human OVCAR5 cells after 48 hrs by cell counting analysis
OVCAR-8 = assay: Growth inhibition of human OVCAR8 cells after 48 hrs by cell counting analysis
[2] = Growth inhibition of human NCI-ADR-RES cells after 48 hrs by cell counting analysis
SK-OV-3 = assay: Growth inhibition of human SKOV3 cells after 48 hrs by cell counting analysis
ACHN = assay: Growth inhibition of human ACHN cells after 48 hrs by cell counting analysis
CAKI-1 = assay: Growth inhibition of human Caki1 cells after 48 hrs by cell counting analysis
RXF 393 = assay: Growth inhibition of human RXF393 cells after 48 hrs by cell counting analysis
SN12C = assay: Growth inhibition of human SN12C cells after 48 hrs by cell counting analysis
TK-10 = assay: Growth inhibition of human TK10 cells after 48 hrs by cell counting analysis
UO-31 = assay: Growth inhibition of human UO31 cells after 48 hrs by cell counting analysis
PC-3 = assay: Growth inhibition of human PC3 cells after 48 hrs by cell counting analysis
MCF7 = assay: Growth inhibition of human MCF7 cells after 48 hrs by cell counting analysis
MDA-MB-231 = assay: Growth inhibition of human MDA-MB-231 cells after 48 hrs by cell counting analysis
BT-549 = assay: Growth inhibition of human BT549 cells after 48 hrs by cell counting analysis
T47D = assay: Growth inhibition of human T47D cells after 48 hrs by cell counting analysis
MDA-MB-468 = assay: Growth inhibition of human MDA-MB-468 cells after 48 hrs by cell counting analysis
MOLT-4 = assay: Growth inhibition of human MOLT4 cells after 48 hrs by cell counting analysis
HCT-116 = assay: Growth inhibition of human HCT116 cells after 48 hrs by cell counting analysis

O=C(CCN1CCN(c2ccccc2)CC1)Nc1nc(-c2ccc(Cl)cc2)cs1
growth inhibition (GI) (CCRF-CEM): 16.3%
growth inhibition (GI) (HL-60): 19.6%
growth inhibition (GI) (K562): 21.6%
growth inhibition (GI) (RPMI-8226): 25.4%
growth inhibition (GI) (SR): <10%
growth inhibition (GI) (A549): 12%
growth inhibition (GI) (EKVX): <10%
growth inhibition (GI) (HOP-62): <10%
growth inhibition (GI) (HOP-92): 23.7%
growth inhibition (GI) (NCI-H226): 14.1%
growth inhibition (GI) (NCI-H23): 13.7%
growth inhibition (GI) [1]: 27.8%
growth inhibition (GI) (NCI-H522): 18.7%
growth inhibition (GI) (HCC 2998): <10%
growth inhibition (GI) (HCT-15): <10%
growth inhibition (GI) (HT-29): 18.6%
growth inhibition (GI) (KM12): <10%
growth inhibition (GI) (SW-620): <10%
growth inhibition (GI) (SF-268): <10%
growth inhibition (GI) (SF-295): 24.2%
growth inhibition (GI) (SF-539): <10%
growth inhibition (GI) (SNB-19): <10%
growth inhibition (GI) (SNB-75): 14.9%
growth inhibition (GI) (U-251): <10%
growth inhibition (GI) (LOX IMVI): <10%
growth inhibition (GI) (Malme-3M): <10%
growth inhibition (GI) (M14): <10%
growth inhibition (GI) (MDA-MB-435): <10%
growth inhibition (GI) (SK-MEL-2): <10%
growth inhibition (GI) (SK-MEL-28): <10%
growth inhibition (GI) (SK-MEL-5): 10.1%
growth inhibition (GI) (UACC-257): <10%
growth inhibition (GI) (UACC-62): 20.5%
growth inhibition (GI) (IGROV-1): <10%
growth inhibition (GI) (OVCAR-3): <10%
growth inhibition (GI) (OVCAR-4): <10%
growth inhibition (GI) (OVCAR-5): <10%
growth inhibition (GI) (OVCAR-8): <10%
growth inhibition (GI) [2]: <10%
growth inhibition (GI) (SK-OV-3): <10%
growth inhibition (GI) (ACHN): <10%
growth inhibition (GI) (CAKI-1): <10%
growth inhibition (GI) (RXF 393): <10%
growth inhibition (GI) (SN12C): 11.9%
growth inhibition (GI) (TK-10): <10%
growth inhibition (GI) (UO-31): 38.6%
growth inhibition (GI) (PC-3): 12%
growth inhibition (GI) (MCF7): 10.9%
growth inhibition (GI) (MDA-MB-231): <10%
growth inhibition (GI) (BT-549): <10%
growth inhibition (GI) (T47D): <10%
growth inhibition (GI) (MDA-MB-468): <10%
growth inhibition (GI) (MOLT-4): 36.3%
growth inhibition (GI) (HCT-116): 19.4%

CN1CCN(CCC(=O)Nc2nc(-c3ccc(Br)cc3)cs2)CC1
growth inhibition (GI) (CCRF-CEM): 24.9%
growth inhibition (GI) (HL-60): 37.7%
growth inhibition (GI) (K562): 52.4%
growth inhibition (GI) (RPMI-8226): 30.5%
growth inhibition (GI) (SR): <10%
growth inhibition (GI) (A549): 22.2%
growth inhibition (GI) (EKVX): 10.8%
growth inhibition (GI) (HOP-62): 25%
growth inhibition (GI) (HOP-92): 42.7%
growth inhibition (GI) (NCI-H226): 19.1%
growth inhibition (GI) (NCI-H23): 26%
growth inhibition (GI) [1]: 17.2%
growth inhibition (GI) (NCI-H522): 28.5%
growth inhibition (GI) (HCC 2998): <10%
growth inhibition (GI) (HCT-15): 42.6%
growth inhibition (GI) (HT-29): 80.4%
growth inhibition (GI) (KM12): <10%
growth inhibition (GI) (SW-620): <10%
growth inhibition (GI) (SF-268): 12.8%
growth inhibition (GI) (SF-295): 14.4%
growth inhibition (GI) (SF-539): 31.4%
growth inhibition (GI) (SNB-19): 20.9%
growth inhibition (GI) (SNB-75): 47.9%
growth inhibition (GI) (U-251): 33.6%
growth inhibition (GI) (LOX IMVI): 31.8%
growth inhibition (GI) (Malme-3M): 24.6%
growth inhibition (GI) (M14): 33.7%
growth inhibition (GI) (MDA-MB-435): 50.6%
growth inhibition (GI) (SK-MEL-2): <10%
growth inhibition (GI) (SK-MEL-28): 23.4%
growth inhibition (GI) (SK-MEL-5): 76.2%
growth inhibition (GI) (UACC-257): 36.4%
growth inhibition (GI) (UACC-62): 71.6%
growth inhibition (GI) (IGROV-1): 20.4%
growth inhibition (GI) (OVCAR-3): <10%
growth inhibition (GI) (OVCAR-4): <10%
growth inhibition (GI) (OVCAR-5): 15.6%
growth inhibition (GI) (OVCAR-8): <10%
growth inhibition (GI) [2]: 22.9%
growth inhibition (GI) (SK-OV-3): <10%
growth inhibition (GI) (ACHN): 15.9%
growth inhibition (GI) (CAKI-1): 30.2%
growth inhibition (GI) (RXF 393): 38.1%
growth inhibition (GI) (SN12C): 31.9%
growth inhibition (GI) (TK-10): 22.5%
growth inhibition (GI) (UO-31): 50.8%
growth inhibition (GI) (PC-3): 24.6%
growth inhibition (GI) (MCF7): 28.8%
growth inhibition (GI) (MDA-MB-231): 64.3%
growth inhibition (GI) (BT-549): 32.5%
growth inhibition (GI) (T47D): 34.9%
growth inhibition (GI) (MDA-MB-468): 48.7%
growth inhibition (GI) (MOLT-4): 38.1%
growth inhibition (GI) (HCT-116): 42.5%
